Tests used:
[1] = system: naïve pancreatic fibroblasts cultured within D-ECM; assay: ECM prompted myofibroblastic maintenance (α-SMA / F-actin immunofluorescence), PDAC model; format: cell-based, human; conditions: for α-SMA expression, Median / α-SMA stress fiber localization, Median: normalized to untreated D-ECM = 1
Protocol: (§1) ECM prompted myofibroblastic maintenance. Human naïve or assorted murine fibroblasts were incubated for 45 minutes prior to overnight culturing within assorted ECMs, prepared as above, in the presence or absence of 50 μg/ml SNAKA51, 60 μg/m ALULA, 250 μg/m mAb16, or BMAS diluted as instructed by the manufacturer (Millipore, Temecula, Calif.), IgG control, DMSO or small molecule inhibitors FAK (PF573,228) and SRC family kinases (PP2). ECM-induced phenotypes were assessed via RT-qPCR, Western Blot or immunofluorescence.
(§2) Naïve/innate PDAC and RCC patient harvested fibroblasts were cultured overnight within normal (N-ECM) vs. desmoplastic (D-ECM or DECMs that were produced in the presence or absence of TGFβ1-receptor inhibition (D+TGFβi) or vehicle control (D+DMSO). Alternatively, naïve cells cultured within D-ECMs were treated with either TGFβ1-receptor inhibitor (TGFβ-i), vehicle (DMSO), functional blocking antibodies anti-αvβ5 integrin (alula, αvβ5-i), anti-α5β1 integrin (mAb16, α5β1-i), combinations of both functional blocking antibodies (β5-i+α5-i), functional stabilizing anti α5β1 integrin (SNAKA51; α5β1-act) or non-immunized isotypic antibodies (IgG). All samples were subjected to indirect immunofluorescent labeling of desmoplastic marker α-SMA and counterstained with fluorescently labeled phalloidin to detect actin stress fibers (F-actin) and determine the co-localization ratio. Monochromatic “heat map” images (see, FIG. 2A) represent α-SMA intensity values. A 255 tones intensity scale bar is shown to the right. A summary of all measured values is graphed in FIG. 2B. Additional monochromatic images indicative of double labeled staining for α-SMA and F-actin are in FIG. 2C while levels of total α-SMA localized at corresponding stress fibers are plotted in FIG. 2D. Untreated D-ECM conditions were included in all experiments summarized in this figure and serve as normalization (1 arbitrary unit; a.u.) controls. Matching values including statistical significances are listed in accompanying Table 1. All scale bars represent 50 μm. TGFβ activity was needed to maintain functional D-ECM production but was dispensable when testing D-ECM induced responses, while the later were obstructed by αvβ5 integrin inhibition or active α5β1 integrin stabilization.

[2] = system: PDAC desmoplastic fibroblasts (D-ECM production); assay: ECM fiber orientation analysis of D-ECM produced by PDAC-associated fibroblasts; format: cell-based, human
Protocol: Un-extracted 3D cultures were either processed for phenotypic characterization, ECM alignment measurements, or decellularized to assess maintenance of myofibroblastic phenotype. ECM fiber orientation analysis. Fibronectin channel monochromatic images were analyzed via Imager OrientationJ plugin. Numerical outputs were normalized by setting mode angles to 0° and correcting angle spreads to fluctuate between −90° and 90°. Angle spreads for each experimental condition, corresponding to a minimum of three experimental repetitions and five image acquisitions per condition were plotted and their standard deviations calculated. The percentage of fibers oriented between −15° and 15° was determined for each normalized image-obtained data. FIGS. 1A through 1E show desmoplastic (D)-ECM remodeling by TGFβ-blockage bestows normal (N)-ECM-like phenotypes. Fibroblasts were isolated from pancreatic ductal adenocarcinoma (PDAC) and renal cell carcinoma (RCC) surgical samples and their ECM producing phenotypes were assessed prior to ECM decellularization via fibroblastic extraction. […] Complementary low/heterogeneous vs. high/organized α-SMA levels, with heterogeneous/round vs. elongated/spindled cell nuclei, and disorganized/woven vs. parallel/aligned ECM fibers are evident in the representative images. […] Scale bars represent 50 μm.

[3] = system: naïve renal fibroblasts cultured within D-ECM; assay: ECM prompted myofibroblastic maintenance (α-SMA / F-actin immunofluorescence), RCC model; format: cell-based, human; conditions: for α-SMA expression, Median / α-SMA stress fiber localization, Median: normalized to untreated D-ECM = 1
Protocol: as §1, §2

[4] = system: TGFβ levels stored within ECMs; assay: TGFβ protein levels in 3D unextracted culture lysates by ELISA; format: cell-based, human; conditions: inhibitor used during D-ECM production; <0.0001
Description: (§3) FIGS. 7A through 7F show characterization of human fibroblastic cells isolated from PDAC and RCC surgical samples. […] Isolated cells were probed for desmoplastic markers α-SMA and palladin while Panc1 (a pancreatic cancer cell line) cells were used as epithelial to mesenchyme […] (EMT) controls known to express both epithelial and mesenchymal markers. Assorted markers are shown in white while counterstained Hoechst identified nuclei are shown in yellow. […] TGFβ inhibition causes disorganization of desmoplastic and ablation of normal ECMs. […] Data were normalized to total protein concentration and to D-ECM readouts; results are expressed as arbitrary units (A.U.). […] All scale bars represent 50 μm.

[5] = system: RCC desmoplastic fibroblasts (D-ECM production); assay: ECM fiber orientation analysis of D-ECM produced by RCC-associated fibroblasts; format: cell-based, human
Description: (§4) Preparation of fibroblasts-derived 3D ECMs. Extracellular matrices (ECMs) were obtained in the presence or absence of TGFβ1R small molecule inhibitor SB431542, DMSO, conformation-dependent anti-active α5 integrin functional antibody (SNAKA51), functional-blocking anti αvβ5 integrin (ALULA), or species matched non-immunized isotypic antibodies. Un-extracted 3D cultures were either processed for phenotypic characterization, ECM alignment measurements, or decellularized to assess maintenance of myofibroblastic phenotype.
ECM fiber orientation analysis. Fibronectin channel monochromatic images were analyzed via Imager OrientationJ plugin. […] Angle spreads for each experimental condition, corresponding to a minimum of three experimental repetitions and five image acquisitions per condition were plotted and their standard deviations calculated. The percentage of fibers oriented between −15° and 15° was determined for each normalized image-obtained data.
FIGS. 1A through 1E show desmoplastic (D)-ECM remodeling by TGFβ-blockage bestows normal (N)-ECM-like phenotypes. Fibroblasts were isolated from pancreatic ductal adenocarcinoma (PDAC) and renal cell carcinoma (RCC) surgical samples and their ECM producing phenotypes were assessed prior to ECM decellularization via fibroblastic extraction. […]

[6] = system: normal fibroblasts (N-ECM assembly); assay: N-ECM assembly by normal fibroblasts under TGFβ1-receptor blockage; format: cell-based, human; conditions: blockage of TGFβ signaling during ECM production
Description: as §4, §3

[7] = system: murine fibroblasts cultured in mD-ECM; assay: mD-ECM induced myofibroblastic activation of murine fibroblasts (stress fiber α-SMA); format: cell-based; conditions: wild type murine fibroblasts in mD-ECM (80% untreated)
Protocol: as §1
FIGS. 3A through 3H show FAK independent α5β1 integrin activity negatively regulates D-ECM-induced desmoplastic activation. […]

[8] = PDAC, naïve cells within D-ECM treated overnight
[9] = PDAC, naïve fibroblasts in D-ECM that was produced in presence of TGFβ1-receptor inhibitor
[10] = PDAC, naïve fibroblasts plated in D-ECM in presence of the agent
[11] = SB-431542 during D-ECM production
[12] = RCC, naïve cells within D-ECM treated overnight
[13] = RCC, naïve fibroblasts in D-ECM that was produced in presence of TGFβ1-receptor inhibitor
[14] = RCC, naïve fibroblasts plated in D-ECM in presence of the agent

**Q.** With `NC(=O)c1ccc(-c2nc(-c3ccc4c(c3)OCO4)c(-c3ccccn3)[nH]2)cc1` [SB-431542] as the compound, how does the “stress fiber localization of α-SMA relative to the untreated D-ECM” value ([1]; PDAC, D-ECM produced under TGFβ blockage, re-seeded with naïve fibroblasts) read?
**A.** The value was 55%.

**Q.** What about the “α-SMA expression, Median” value [1, 8] of the same compound?
**A.** The value was 0.62 a.u.

**Q.** And the “α-SMA stress fiber localization, Median” value [1, 8]?
**A.** Its value is 0.96 a.u.

**Q.** And the “D-ECM induced myofibroblastic phenotype (α-SMA expression / stress fiber localization), in words” value ([1]; PDAC, naïve cells within D-ECM treated with the agent)?
**A.** The value was “comparable”.

**Q.** And the “α-SMA expression, Median” value [1, 9]?
**A.** The value was 0.73 a.u.

**Q.** And the “α-SMA stress fiber localization, Median” value [1, 9]?
**A.** Its value is 0.55 a.u.

**Q.** And the “α-SMA expression levels relative to untreated conditions” value [1, 10]?
**A.** The value was 62%.

**Q.** And the “myofibroblastic phenotype induced de novo by the extracted ECM, in words” value ([1]; naïve pancreatic fibroblasts re-seeded in D-ECM produced in presence of SB-431542)?
**A.** The value was “comparable phenotypes”.

**Q.** What about the “fiber alignment (fibers distributed at 15° from the mode angle)” value [2, 11] of the same compound?
**A.** Its value is 36%.

**Q.** And the “ECM fiber alignments reduced to” value ([2]; TGFβ blockage during D-ECM production, n=21, P<0.0001)?
**A.** Its value is 47%.

**Q.** And the “stress fiber localization of α-SMA relative to the untreated D-ECM” value ([3]; RCC, D-ECM produced under TGFβ blockage, re-seeded with naïve fibroblasts)?
**A.** Its value is 72%.

**Q.** What about the “α-SMA expression, Median” value [3, 12] of the same compound?
**A.** Its value is 1.00 a.u.

**Q.** What about the “α-SMA stress fiber localization, Median” value [3, 12] of the same compound?
**A.** The value was 1.03 a.u.

**Q.** And the “D-ECM induced myofibroblastic phenotype (α-SMA expression / stress fiber localization), in words” value ([3]; RCC, naïve cells within D-ECM treated with the agent)?
**A.** Its value is “comparable”.

**Q.** What about the “α-SMA expression, Median” value [3, 13] of the same compound?
**A.** Its value is 0.41 a.u.

**Q.** What about the “α-SMA stress fiber localization, Median” value [3, 13] of the same compound?
**A.** The value was 0.72 a.u.

**Q.** What about the “α-SMA expression levels relative to untreated conditions” value [3, 14] of the same compound?
**A.** The value was 100%.

**Q.** And the “myofibroblastic phenotype induced de novo by the extracted ECM, in words” value ([3]; naïve renal fibroblasts re-seeded in D-ECM produced in presence of SB-431542)?
**A.** The value was “comparable phenotypes”.

**Q.** What about the “reduction of TGFβ levels stored within ECMs” value [4] of the same compound?
**A.** The value was 60%.

**Q.** What about the “fiber alignment (fibers distributed at 15° from the mode angle)” value [5, 11] of the same compound?
**A.** The value was 47%.

**Q.** What about the “ECM fiber alignments reduced to” value ([5]; TGFβ blockage during D-ECM production, n=26, P=0.0028) of the same compound?
**A.** Its value is 51%.

**Q.** And the “de novo N-ECM assembly” value [6]?
**A.** The value was “prevented de novo N-ECM assembly”.

**Q.** Which “α-SMA expression levels relative to untreated conditions” value [1, 10] does the source give for `CS(=O)(=O)c1cccc(CNc2nc(Nc3ccc4c(c3)CCC(=O)N4)ncc2C(F)(F)F)c1` [PF573,228] here?
**A.** The value was 17%.

**Q.** And the “α-SMA stress fiber localization levels” value [1, 10]?
**A.** The value was 23.5%.

**Q.** What about the “cells undergoing myofibroblastic activation” value [7] of the same compound?
**A.** Its value is 32%.

**Q.** And the “α-SMA expression levels relative to untreated conditions” value [3, 14]?
**A.** Its value is 70%.

**Q.** And the “α-SMA stress fiber localization levels” value [3, 14]?
**A.** Its value is 25%.
